Assay results: US8063225B2, “Tricyclic compound derivatives useful in the treatment of neoplastic diseases, inflammatory disorders and immunomodulatory disorders” (Chembridge Corporation, priority 2006, dated 2011)
pIC50: −log10 of the molar value.

What was measured:
Assay type in all cases: cell-based
SKMM2 = experiment: Cell proliferation inhibition, MTT assay, SKMM2; conditions: Homo sapiens, SK-MM-2, 72 h, SKMM2 multiple myeloma cells, 3-day proliferation
Text: (§1) IGF1R and other tyrosine kinase inhibitors can inhibit the proliferation of certain cancer cell lines indicating their possible therapeutic utility for treating the corresponding cancer types. Cancer cell lines of interest and control normal lines, including CHO, HEK293, BA/F3, COLO205, PC3, DU145, MCF7, Panc1, ACHN, Hep G2, H460, K562, TT, U87-MG, CAOV-3, SK-MEL5, Karpas 299 and human multiple myeloma cell lines H929, MM1s, MM1r, UTMC2, CPM2, KMS11, My5, KMS12PE, My7, JJN3, KMS18, U266, SKMM2, RPMI-8226 are plated in white, clear-bottomed 384-well cell culture plates at 2500-5000 cells per well and supplied with dilutions of tested compounds After a desired period of time (typically 3 days), the number of viable cells is quantitated by using Cell Titer-Glo Luminescent Cell Viability Assay (Promega), a cell proliferation assay system based on detection of total amount of ATP present as a measure of cell metabolic activity. The plated cells are mixed with the Cell Titer-Glo developing reagent and counted in a luminescence multiwell plate reader according to the standard manufacturer's protocol to generate IC50 curves for cell proliferation inhibition. Results are typically reported as percent of growth (% viability =(OD72h(compound)−ODday0))/(OD72h(no compound)−ODday0). Alternatively, viable cells are quantitated by using the conventional colorimetric MTT assay. The MTT assay is based on the cleavage of the yellow tetrazolium salt MTT to purple formazan crystal by metabolic active cells. The formazan is then solubilized, and the concentration determined by optical density at 570 nm. The cells plated and incubated with a compound as described above are supplemented with the solution of MTT and incubated for 2-3 hours. The growth medium is removed and dimethyl sulfoxide is added into each well to dissolve the formazan. The absorbance is measured on an ELISA plate reader with a test wavelength of 570 nm and a background subtraction wavelength of 630 nm to obtain sample signal (OD570-OD630). […] The results are reported in terms of IC50 value for a particular compound and a cell line in the standard 3-day proliferation assay using Cell Titer-Glo. […] The results are reported in terms of IC50 value for a particular compound and a cell line in the standard 3-day proliferation assay using MTT assay.

My7 = experiment: Cell proliferation inhibition, MTT assay, My7; conditions: Homo sapiens, Multiple myeloma cell, 72 h, My7 multiple myeloma cells, 3-day proliferation
Text: as §1

U266 = experiment: Cell proliferation inhibition, MTT assay, U266; conditions: Homo sapiens, U-266, 72 h, U266 multiple myeloma cells, 3-day proliferation
Text: as §1

JJN3 = experiment: Cell proliferation inhibition, MTT assay, JJN3; conditions: Homo sapiens, JJN-3, 72 h, JJN3 multiple myeloma cells, 3-day proliferation
Text: as §1

My5 = experiment: Cell proliferation inhibition, MTT assay, My5; conditions: Homo sapiens, Multiple myeloma cell, 72 h, My5 multiple myeloma cells, 3-day proliferation
Text: as §1

KMS18 = experiment: Cell proliferation inhibition, MTT assay, KMS18; conditions: Homo sapiens, 72 h, KMS18 multiple myeloma cells, 3-day proliferation
Text: as §1

KMS12PE = experiment: Cell proliferation inhibition, MTT assay, KMS12PE; conditions: Homo sapiens, 72 h, KMS-12PE multiple myeloma cells, 3-day proliferation
Text: as §1

RPMI-8226 = experiment: Cell proliferation inhibition, MTT assay, RPMI-8226; conditions: Homo sapiens, 72 h, RPMI-8226 multiple myeloma cells, 3-day proliferation
Text: as §1

Compound | pIC50 (SKMM2) | pIC50 (My7) | pIC50 (U266) | pIC50 (JJN3) | pIC50 (My5) | pIC50 (KMS18) | pIC50 (KMS12PE) | pIC50 (RPMI-8226)
Cc1ccc(OCC(=O)CNc2cc[nH]c(=O)c2-c2nc3cc4c(cc3[nH]2)CN(CCCN2CCCC2)C4=O)c(C)c1 [drawing 847] | 4.70 to 5.30 | 4.70 to 5.30 | 4.70 to 5.30 | 4.70 to 5.30 | 4.70 to 5.30 | 4.70 to 5.30 | 4.70 to 5.30 | 4.70 to 5.30
COc1ccc(OCC(=O)CNc2cc[nH]c(=O)c2-c2nc3cc4c(cc3[nH]2)C(=O)N(C2CCN(C)CC2)C4)c(Cl)c1 [drawing 850] | 4.70 to 5.30 | 4.70 to 5.30 | 5.30 to 6.00 | 5.30 to 6.00 | 4.70 to 5.30 | 5.30 to 6.00 | 5.30 to 6.00 | 4.70 to 5.30
CCc1cc2c(cc1OCC(=O)CNc1cc[nH]c(=O)c1-c1nc3cc4c(cc3[nH]1)C(=O)N(C1CCN(C)CC1)C4)OCO2 [drawing 849] | 4.70 to 5.30 | 5.30 to 6.00 | 5.30 to 6.00 | 5.30 to 6.00 | 4.70 to 5.30 | 5.30 to 6.00 | 4.70 to 5.30 | 4.70 to 5.30
Cc1ccc(OCC(=O)CNc2cc[nH]c(=O)c2-c2nc3cc4c(cc3[nH]2)CN(C2CCN(C)CC2)C4=O)c(C)c1 [drawing 845] | 4.70 to 5.30 | 5.30 to 6.00 | 5.30 to 6.00 | 5.30 to 6.00 | 5.30 to 6.00 | 5.30 to 6.00 | 5.30 to 6.00 | 4.70 to 5.30
CN1CCC(N2Cc3cc4[nH]c(-c5c(NCC(=O)COc6ccccc6Br)cc[nH]c5=O)nc4cc3C2=O)CC1 [drawing 848] | 5.30 to 6.00 | 5.30 to 6.00 | 5.30 to 6.00 | 5.30 to 6.00 | 5.30 to 6.00 | 6.00 to 6.30 | 5.30 to 6.00 | 4.70 to 5.30
